Where a SMILES comes first, the peptide text is derived from it. [ ]: non-standard residue; d: D form. βAla = NCCC(=O)O
Tests used:
hMSCs = assay: Quantification of peptide and hydrogel degradation in cell-laden PEG hydrogels (Cy3/FAM fluorescence); assay type: in vitro ADME, human
From the text: (§1) Next we designed systems to quantify the amount of crosslinking peptide degradation and bulk hydrogel degradation during culture. We synthesized both the KLVAD‐LM peptide and the PanMMP peptide with an N‐terminal Cy3 and a C‐terminal azide to click into the PEG hydrogel network, and also coupled fluorescein (FAM) to the hydrogel using a non‐degradable linker (Figure 5A). Proteolytic cleavage of the crosslinking peptides will liberate the Cy3 from the PEG hydrogel, and bulk erosion of the hydrogel reduces the amount of PEG and FAM. At desired time points, the gels were completely degraded with trypsin, and the fluorescence intensity of Cy3 and FAM was measured to quantify peptide and hydrogel degradation during culture (Figure 5B).
(§2) Figure 5 The rate of degradation of crosslinking peptides in the hydrogels was quantified using fluorescence. A) A fraction of PEG arms were functionalized with PanMMP and KLVAD‐LM peptides that were labeled with […] on their N‐terminus and conjugated to the PEG hydrogel matrix on their C‐terminus to quantify crosslinker degradation. Fluorescein (FAM) was also conjugated to the hydrogel through non‐degradable linkers to quantify bulk hydrogel degradation. […] The amounts of remaining Cy3 and FAM were quantified using fluorescence spectroscopy. […]

hUVECs = assay: as above; assay type: in vitro ADME, human
From the text: as §1, §2

recombinant MMP‐14 = target: T1, recombinant MMP‐14 (Homo sapiens, UniProt P50281); assay: Peptide degradation with added exogenous recombinant MMP-14 (LC-MS); assay type: in vitro ADME; conditions: fresh cell culture media (both hMSC and hUVEC media), no cell contact, recombinant MMP-14 0.5 nM, 24 h, LC-MS
T1 construct: purchased antibodies.com
Description: To verify that MMP‐14 can degrade the KLVAD‐LM and PanMMP peptides, recombinant MMP‐14 was added to the different peptides, both in PBS and in the Cell and Media culture conditions (Figure 7 ). Peptides were incubated under three conditions: in fresh cell culture media (“Blank”), in media with cells present (“Cells”), and in cell‐conditioned media (“Media”). This was done for both hMSCs and hUVECs, and was also done with and without the addition of exogenous MMP.
The extent of peptide degradation was quantified for samples both with and without the addition of exogenous MMP‐14. […] Error bars indicate ± standard deviation, N = 3 with technical triplicates.
hUVECs (75000 per well) or hMSCs (36000 per well) were seeded into a 48 well plate, and 500 µL media was added to the wells. […] The peptide libraries were dissolved at a stock solution of 10 mM total peptide content. For libraries containing 38 peptides, 95 µL of the stock solution was added to each well; for libraries with 19 peptides, 47.5 µL was added to each well, and media was taken at 0 and 24 h. Add 4 µL of acetic acid to all collected media in the LC‐MS plates and store them in a −80 °C freezer to prevent further proteolytic degradation. From each sample, 10 µL of crude solution was introduced by the LC‐MS through a Thermo Scientific Vanquish LC System (Thermo Fisher Scientific), which outputted to a Thermo Scientific LTQ XL Linear Ion Trap Mass Spectrometer (Thermo Fisher Scientific). The sampled mixture was trapped on a column (ProntoSIL C18 AQ, 120 Å, 3 µm, 2.0 x 50 mm HPLC Column, PN 0502F184PS030, MAC‐MOD Analytical Inc.). The samples were loaded onto the column with a solvent containing acetonitrile/water, 5:95 (v/v) containing 1% acetic acid at a flow rate of 300 µL min^−1 and held for 1 min. The sample was then eluted from the column with a linear gradient of 5–40% Solvent B (1% acetic acid in acetonitrile) at the same flow rate for 5 min. This was followed by a 1 min ramp up to 100% Solvent B, where it was re‐equilibrated with Solvent A (1% acetic acid) to 5% solvent B over the course of 1 min and held there for 2 min. The column temperature was kept at a constant 29 °C, and the mass spectrometer was operated in positive ion mode. Using a Heated ESI, the Source Voltage was set to 4.1 kV, and the capillary temperature was 350 °C. For non‐library degradation studies, 2.5 µL of 10 mM peptide stock solution for each peptide was added.
To assess the activity of the conditioned media, the media were divided into two equal portions. One portion was used for a standard degradation study, while the other was cultured for an additional 24 h before the PanMMP and KLVADLMASAE were added. After 24 h of incubation, the media were collected for further analysis. To assess the impact of recombinant MMP‐14 on PanMMP and KLVADLMASAE, recombinant MMP‐14 (antibodies.com) was dissolved in the media at a concentration of 0.5 nM. The remaining steps followed the standard degradation study protocol.
For all degradation studies using soluble peptides, a non‐proteolytically degradable NH2‐βFβAβAβAβAβAβA‐amide (βFβA6) peptide, where βF is β‐phenylalanine and βA is β‐alanine, was added at a 50 µM concentration and used as an internal standard. Peptide degradation ratios were measured by LC‐MS and analyzed by Xcalibur. The relative concentrations of the peptide were calculated by the ratio of the peak area of the peptide and the peak area of βFβA6.

degradation within hydrogels relative to that seen with the PanMMP peptide, hMSCs (hMSCs) | degradation within hydrogels relative to that seen with the PanMMP peptide, hUVECs (hUVECs) | degradation on adding MMP‐14 to the Blank condition (recombinant MMP‐14) | SMILES
40–60% | 40–60% | – | CSCC[C@H](NC(=O)[C@H](CC(C)C)NC(=O)[C@H](CC(=O)O)NC(=O)[C@H](C)NC(=O)[C@@H](NC(=O)[C@H](CC(C)C)NC(=O)[C@H](CCCCN)NC(=O)CCNC(C)=O)C(C)C)C(=O)N[C@@H](C)C(=O)N[C@@H](CO)C(=O)N[C@@H](C)C(=O)N[C@@H](CCC(=O)O)C(=O)NCCC(N)=O [KLVAD-LM] (Ac-[βAla]KLVADLMASAE[βAla]-NH2)
– | – | 10–20% | CC[C@H](C)[C@H](NC(=O)CNC(=O)[C@H](CCC(N)=O)NC(=O)[C@@H]1CCCN1C(=O)CNC(=O)CCNC(C)=O)C(=O)N[C@@H](Cc1c[nH]c2ccccc12)C(=O)NCC(=O)N[C@@H](CCC(N)=O)C(=O)NCCC(N)=O [PanMMP, reference compound] (Ac-[βAla]GPQGIWGQ[βAla]-NH2)

Source: PMC12683216, “Using High‐Throughput Screening to Identify Crosslinking Peptides That Control Cell‐Mediated Matrix Degradation” (Advanced Healthcare Materials, 2025)
